In brackets after ≈: the same amount, converted by molar mass. Activity calls are given as the source filed them. No cut-off for these calls is given here. Bridge positions count the residues as written; N and C are the ends. Square brackets hold non-standard residues; d marks the D form. Peptide text beside a SMILES is read from it. * marks the point of attachment. ξ: configuration not given here. Hexanoyl(4ξ-Me) = CCC(C)CCC(=O)*; dOrn = NCCC[C@@H](N)C(=O)O; Orn = NCCC[C@H](N)C(=O)O
Assays:
Escherichia coli = experiment: Antibacterial activity against Escherichia coli ATCC 25922 incubated for 18 to 24 hrs by broth microdilution method; assay type: functional; conditions: time 18-24 hrs
Klebsiella pneumoniae = experiment: Antibacterial activity against Klebsiella pneumoniae ATCC 700603 incubated for 18 to 24 hrs by broth microdilution method; assay type: functional; conditions: time 18-24 hrs
Pseudomonas aeruginosa [1] = experiment: Antibacterial activity against Pseudomonas aeruginosa ATCC 27853 incubated for 18 to 24 hrs by broth microdilution method; assay type: functional; conditions: time 18-24 hrs
Acinetobacter baumannii = experiment: Antibacterial activity against Acinetobacter baumannii ATCC 19606 incubated for 18 to 24 hrs by broth microdilution method; assay type: functional; conditions: time 18-24 hrs
Staphylococcus aureus [2] = experiment: Antibacterial activity against Staphylococcus aureus ATCC 25923 incubated for 18 to 24 hrs by broth microdilution method; assay type: functional; conditions: time 18-24 hrs
Bacillus subtilis = experiment: Antibacterial activity against Bacillus subtilis ATCC 23857 incubated for 18 to 24 hrs by broth microdilution method; assay type: functional; conditions: time 18-24 hrs
[3] = system: Staphylococcus epidermidis; experiment: Antibacterial activity against Staphylococcus epidermidis ATCC 12228 incubated for 18 to 24 hrs by broth microdilution method; assay type: functional; conditions: time 18-24 hrs
Enterococcus faecalis = experiment: Antibacterial activity against Enterococcus faecalis ATCC 29212 incubated for 18 to 24 hrs by broth microdilution method; assay type: functional; conditions: time 18-24 hrs
Erythrocyte = experiment: Hemolytic activity in mouse red blood cell assessed as hemolysis incubated for 1 hr; assay type: toxicity, cell-based
[4] = Half life in mouse serum by RP-HPLC analysis; assay type: ADME, cell-free
Pseudomonas aeruginosa [5] = experiment: Antibacterial activity against Pseudomonas aeruginosa ATCC 27853 pretreated with 2.5% mouse serum followed by compound addition and measured after 1 hr by broth microdilution method (reference value: 2 microM); assay type: functional
Pseudomonas aeruginosa [6] = experiment: Antibacterial activity against Pseudomonas aeruginosa ATCC 27853 pretreated with 5% mouse serum followed by compound addition and measured after 1 hr by broth microdilution method (reference value: 2 microM); assay type: functional
Pseudomonas aeruginosa [7] = experiment: Antibacterial activity against Pseudomonas aeruginosa ATCC 27853 pretreated with 10% mouse serum followed by compound addition and measured after 1 hr by broth microdilution method (reference value: 2 microM); assay type: functional
Pseudomonas aeruginosa [8] = experiment: Antibacterial activity against Pseudomonas aeruginosa ATCC 27853 pretreated with 20% mouse serum followed by compound addition and measured after 1 hr by broth microdilution method (reference value: 2 microM); assay type: functional
Pseudomonas aeruginosa [9] = experiment: Antibacterial activity against Pseudomonas aeruginosa ATCC 27853 pretreated with 2.5% mouse serum followed by compound addition and measured after 6 hrs by broth microdilution method (reference value: 2 microM); assay type: functional
Pseudomonas aeruginosa [10] = experiment: Antibacterial activity against Pseudomonas aeruginosa ATCC 27853 pretreated with 5% mouse serum followed by compound addition and measured after 6 hrs by broth microdilution method (reference value: 2 microM); assay type: functional
Pseudomonas aeruginosa [11] = experiment: Antibacterial activity against Pseudomonas aeruginosa ATCC 27853 pretreated with 10% mouse serum followed by compound addition and measured after 6 hrs by broth microdilution method (reference value: 2 microM); assay type: functional
Pseudomonas aeruginosa [12] = experiment: Antibacterial activity against Pseudomonas aeruginosa ATCC 27853 pretreated with 20% mouse serum followed by compound addition and measured after 6 hrs by broth microdilution method (reference value: 2 microM); assay type: functional
Pseudomonas aeruginosa [13] = experiment: Antibacterial activity against Pseudomonas aeruginosa ATCC 27853 pretreated with Na-cl followed by compound addition and measured after 2 hrs by broth microdilution method (reference value: 2 microM); assay type: functional
Pseudomonas aeruginosa [14] = experiment: Antibacterial activity against Pseudomonas aeruginosa ATCC 27853 pretreated with KCl followed by compound addition and measured after 2 hrs by broth microdilution method (reference value: 2 microM); assay type: functional
Pseudomonas aeruginosa [15] = experiment: Antibacterial activity against Pseudomonas aeruginosa ATCC 27853 pretreated with Mgcl2 followed by compound addition and measured after 2 hrs by broth microdilution method (reference value: 2 microM); assay type: functional
Pseudomonas aeruginosa [16] = experiment: Antibacterial activity against Pseudomonas aeruginosa ATCC 27853 pretreated with FeCl3 followed by compound addition and measured after 2 hrs by broth microdilution method (reference value: 2 microM); assay type: functional
Pseudomonas aeruginosa [17] = experiment: Antibacterial activity against Pseudomonas aeruginosa ATCC 27853 pretreated with Zncl2 followed by compound addition and measured after 2 hrs by broth microdilution method (reference value: 2 microM); assay type: functional
Pseudomonas aeruginosa [18] = experiment: Antibacterial activity against Pseudomonas aeruginosa ATCC 27853 assessed as reduction in survival bacterial growth in presence of trypsin measured after 8 hrs by absorbance based analysis; assay type: functional, organism-based
Pseudomonas aeruginosa [19] = experiment: Antibiofilm activity against Pseudomonas aeruginosa ATCC 27853 at 1/2 to 4 times MIC measured after 24 hrs by crystal violet staining based analysis; assay type: functional, organism-based
Staphylococcus aureus [20] = experiment: Antibiofilm activity against Staphylococcus aureus ATCC 25923 at 1/2 to 4 times MIC measured after 24 hrs by crystal violet staining based analysis; assay type: functional, organism-based
Pseudomonas aeruginosa [21] = experiment: Antibacterial activity against Pseudomonas aeruginosa ATCC 27853 at sub-MIC measured after 20 days; assay type: functional, organism-based; conditions: time 20.0 day
Pseudomonas aeruginosa [22] = experiment: Antibacterial activity against Pseudomonas aeruginosa ATCC 27853 at sub-MIC measured after 20 days in presence of rifampicin; assay type: functional, organism-based; conditions: time 20.0 day
Pseudomonas aeruginosa [23] = experiment: Antibacterial activity against Pseudomonas aeruginosa ATCC 27853 at sub-MIC measured after 20 days in presence of gentamicin; assay type: functional, organism-based; conditions: time 20.0 day
Staphylococcus aureus [24] = experiment: Antibacterial activity against Staphylococcus aureus ATCC 25923 at sub-MIC measured after 20 days in presence of rifampicin; assay type: functional, organism-based; conditions: time 20.0 day
Staphylococcus aureus [25] = experiment: Antibacterial activity against Staphylococcus aureus ATCC 25923 at sub-MIC measured after 20 days in presence of gentamicin; assay type: functional, organism-based; conditions: time 20.0 day
Pseudomonas aeruginosa [26] = experiment: Antimicrobial activity against Pseudomonas aeruginosa ATCC 27853 assessed as reduction in microbial growth at 2 times MIC measured for 18 hrs in presence of 256 microg/ml LPS; assay type: functional, organism-based
Staphylococcus aureus [27] = experiment: In vivo antibacterial activity against Staphylococcus aureus ATCC 25923 infected in BALB/c mouse model assessed as amelioration of pathological changes in lung at 5 to 10 mg/kg, ip measured after 7 hrs by H and E staining based analysis; assay type: functional, organism-based; conditions: dose 5-10 mg/kg
Staphylococcus aureus [28] = experiment: In vivo antibacterial activity against Staphylococcus aureus ATCC 25923 infected in BALB/c mouse model assessed as amelioration of pathological changes in spleen at 5 to 10 mg/kg, ip measured after 7 hrs by H and E staining based analysis; assay type: functional, organism-based; conditions: dose 5-10 mg/kg
Staphylococcus aureus [29] = experiment: In vivo antibacterial activity against Staphylococcus aureus ATCC 25923 infected in BALB/c mouse model assessed as amelioration of pathological changes in kidney at 5 to 10 mg/kg, ip measured after 7 hrs by H and E staining based analysis; assay type: functional, organism-based; conditions: dose 5-10 mg/kg
Pseudomonas aeruginosa [30] = experiment: Antibacterial activity against Pseudomonas aeruginosa ATCC 27853 assessed as fold increase in MIC pretreated with NaCl followed by compound addition and measured after 2 hrs by broth microdilution method; assay type: functional
Pseudomonas aeruginosa [31] = experiment: Antibacterial activity against Pseudomonas aeruginosa ATCC 27853 assessed as fold increase in MIC pretreated with KCl followed by compound addition and measured after 2 hrs by broth microdilution method; assay type: functional
Pseudomonas aeruginosa [32] = experiment: Antibacterial activity against Pseudomonas aeruginosa ATCC 27853 assessed as fold increase in MIC pretreated with MgCl2 followed by compound addition and measured after 2 hrs by broth microdilution method; assay type: functional
Pseudomonas aeruginosa [33] = experiment: Antibacterial activity against Pseudomonas aeruginosa ATCC 27853 assessed as fold increase in MIC pretreated with ZnCl2 followed by compound addition and measured after 2 hrs by broth microdilution method; assay type: functional
Pseudomonas aeruginosa [34] = experiment: Induction of morphological changes in Pseudomonas aeruginosa ATCC 27853 assessed as membrane rupture at 2 times MIC measured after 2 hrs by SEM based analysis; assay type: functional, organism-based

Molecule | MIC (Escherichia coli) [µM] | MIC (Klebsiella pneumoniae) [µM] | MIC (Pseudomonas aeruginosa [1]) [µM] | MIC (Acinetobacter baumannii) [µM] | MIC (Staphylococcus aureus [2]) [µM] | MIC (Bacillus subtilis) [µM] | MIC [3] [µM] | MIC (Enterococcus faecalis) [µM] | MIC (Pseudomonas aeruginosa [5]) [µM] | MIC (Pseudomonas aeruginosa [6]) [µM] | MIC (Pseudomonas aeruginosa [7]) [µM] | MIC (Pseudomonas aeruginosa [8]) [µM] | MIC (Pseudomonas aeruginosa [9]) [µM] | MIC (Pseudomonas aeruginosa [10]) [µM] | MIC (Pseudomonas aeruginosa [11]) [µM] | MIC (Pseudomonas aeruginosa [12]) [µM] | MIC (Pseudomonas aeruginosa [13]) [µM] | MIC (Pseudomonas aeruginosa [14]) [µM] | MIC (Pseudomonas aeruginosa [15]) [µM] | MIC (Pseudomonas aeruginosa [16]) [µM] | also measured
CCCCCCCCCC(=O)N[C@H](CCCN)C(=O)N[C@H](Cc1ccc(O)cc1)C(=O)N[C@H](Cc1c[nH]c2ccccc12)C(=O)N[C@H](CCCN)C(=O)N[C@@H](CCCN)C(=O)NCC(=O)N[C@H](CCCN)C(=O)N[C@@H](Cc1c[nH]c2ccccc12)C(=O)N[C@H](C(=O)N[C@H](C(=O)NCC(=O)N[C@@H](CO)C(=O)O)[C@@H](C)CC)[C@@H](C)O | 4 (≈ 6.32 µg/mL) | 4 (≈ 6.32 µg/mL) | 2 (≈ 3.16 µg/mL) | 4 (≈ 6.32 µg/mL) | 8 (≈ 12.6 µg/mL) | 2 (≈ 3.16 µg/mL) | 4 (≈ 6.32 µg/mL) | 16 (≈ 25.3 µg/mL) | 2 (≈ 3.16 µg/mL) | 2 (≈ 3.16 µg/mL) | 2 (≈ 3.16 µg/mL) | 4 (≈ 6.32 µg/mL) | 2 (≈ 3.16 µg/mL) | 2 (≈ 3.16 µg/mL) | 4 (≈ 6.32 µg/mL) | 8 (≈ 12.6 µg/mL) | 2 (≈ 3.16 µg/mL) | 2 (≈ 3.16 µg/mL) | 2 (≈ 3.16 µg/mL) | < 1 | MHC (Erythrocyte): 128 µM; half-life [4]: 41 h; MIC (Pseudomonas aeruginosa [17]): 2 µM (≈ 3.16 µg/mL); Activity (Pseudomonas aeruginosa [18]): Active; Activity (Pseudomonas aeruginosa [19]): Active; Activity (Staphylococcus aureus [20]): Active; Activity (Pseudomonas aeruginosa [21]): Active; Activity (Pseudomonas aeruginosa [22]): Active; Activity (Pseudomonas aeruginosa [23]): Active; Activity (Staphylococcus aureus [24]): Active; Activity (Staphylococcus aureus [25]): Active; Activity (Pseudomonas aeruginosa [26]): inactive; Activity (Staphylococcus aureus [27]): Active; Activity (Staphylococcus aureus [28]): Active; Activity (Staphylococcus aureus [29]): Active; fold change (FC) (Pseudomonas aeruginosa [30]): 8; fold change (FC) (Pseudomonas aeruginosa [31]): 8; fold change (FC) (Pseudomonas aeruginosa [32]): 8; fold change (FC) (Pseudomonas aeruginosa [33]): 8
CCC(C)CCC(=O)N[C@H](CC(N)=O)C(=O)N[C@H](Cc1ccc(O)cc1)C(=O)N[C@H](Cc1c[nH]c2ccccc12)C(=O)N[C@H](CCCN)C(=O)N[C@@H](CCCN)C(=O)NCC(=O)N[C@H](CCCN)C(=O)N[C@@H](Cc1c[nH]c2ccccc12)C(=O)N[C@@H]1C(=O)N[C@@H]([C@@H](C)CC)C(=O)NCC(=O)N[C@@H](CO)C(=O)O[C@@H]1C (some centres not stated) ({Hexanoyl(4ξ-Me)}-[dN][dY][dW][dOrn][Orn]G[dOrn]WTIGS; ester 9-C) | 2 (≈ 3.04 µg/mL) | 2 (≈ 3.04 µg/mL) | 2 (≈ 3.04 µg/mL) | 8 (≈ 12.2 µg/mL) | 64 (≈ 97.3 µg/mL) | 8 (≈ 12.2 µg/mL) | 32 (≈ 48.6 µg/mL) | 64 (≈ 97.3 µg/mL) | 2 (≈ 3.04 µg/mL) | 2 (≈ 3.04 µg/mL) | 4 (≈ 6.08 µg/mL) | 4 (≈ 6.08 µg/mL) | 8 (≈ 12.2 µg/mL) | 8 (≈ 12.2 µg/mL) | 8 (≈ 12.2 µg/mL) | 16 (≈ 24.3 µg/mL) | 4 (≈ 6.08 µg/mL) | 8 (≈ 12.2 µg/mL) | 8 (≈ 12.2 µg/mL) | 4 (≈ 6.08 µg/mL) | MHC (Erythrocyte): 128 µM; half-life [4]: 4.47 h; MIC (Pseudomonas aeruginosa [17]): 4 µM (≈ 6.08 µg/mL); Activity (Pseudomonas aeruginosa [18]): Active; Activity (Pseudomonas aeruginosa [19]): Active; Activity (Staphylococcus aureus [20]): Active; Activity (Pseudomonas aeruginosa [21]): Active; Activity (Pseudomonas aeruginosa [22]): Active; Activity (Pseudomonas aeruginosa [23]): Active; Activity (Staphylococcus aureus [24]): Active; Activity (Staphylococcus aureus [25]): Active; Activity (Pseudomonas aeruginosa [34]): Active; fold change (FC) (Pseudomonas aeruginosa [30]): 2; fold change (FC) (Pseudomonas aeruginosa [31]): 4; fold change (FC) (Pseudomonas aeruginosa [32]): 4; fold change (FC) (Pseudomonas aeruginosa [33]): 2
POLYMYXIN B | 2 | 4 | 2 | 1 | 16 | 8 | 32 | 128 | 2 | 2 | 2 | 2 | 2 | 2 | 4 | 4 | < 1 | < 1 | 2 | < 1 | MIC (Pseudomonas aeruginosa [17]): < 1 µM; Activity (Pseudomonas aeruginosa [19]): Active; Activity (Staphylococcus aureus [20]): Active; Activity (Pseudomonas aeruginosa [22]): Active; Activity (Pseudomonas aeruginosa [23]): Active; Activity (Staphylococcus aureus [24]): Active; Activity (Staphylococcus aureus [25]): Active; Activity (Pseudomonas aeruginosa [26]): inactive; Activity (Pseudomonas aeruginosa [34]): Active; Activity (Staphylococcus aureus [27]): Active; Activity (Staphylococcus aureus [28]): Active; Activity (Staphylococcus aureus [29]): Active

From ChEMBL document CHEMBL5512645, “A novel antimicrobial peptide with broad-spectrum and exceptional stability derived from the natural peptide Brevicidine” (Eur J Med Chem, 2024)
